This note sets out measurements from a melting point compilation (Tetko et al.; mined from patent text by program, amines drawn as free bases though some values may be those of a salt).

As a reminder, the melting point is the temperature of the solid-liquid transition. For `CC(=O)c1cc(C#N)c(=O)[nH]c1C=CN(C)C`, the melting point was 267 to 270 °C. For the compound `N#Cc1cccc(S(=O)(=O)N2CCn3c(c(C(N)=O)c(Cl)c3-c3ccccc3)C2)c1`, the melting point is 243 to 245 °C. The compound `Cc1cc(C(=N)NO)ccc1-c1ccc(-c2nc3cc(C(=N)NO)ccc3[nH]2)cc1` yielded a melting point of 300 to 302 °C. `O=C1CCCCCC1=CC(=O)c1ccccc1` gave a melting point of 91 to 92 °C. `CC(C)(C)OC(=O)[C@H](CC(=O)c1ccc2oc3ccccc3c2c1)NC(=O)C(F)(F)F`: the melting point lay within 92 to 94 °C. Take `CC(C)(CO)NCC(O)Cn1ccnc1[N+](=O)[O-]` (stereo not drawn): the melting point lay within 114 to 116 °C. For `CCSc1nc(NC(C)=O)ccc1F`, the melting point lay in the range of 110 to 114 °C. The compound `CNn1cc(C(=O)O)c(=O)c2ccc(C)nc21` showed a melting point of 215 to 217 °C.

`COC(=O)C=CC=Cc1cc([N+](=O)[O-])ccc1Cl` gave a melting point of 132 °C.

Compound `O=[N+]([O-])c1c(Cl)cccc1NCC(O)CO` (stereo not drawn) showed a melting point of 126 °C. The result for `CCOCCOc1ccccc1COc1ccc2c(c1)C=C(C(=O)Nc1ccc(CN(C)C3CCOCC3)cc1)CCS2(=O)=O` reads 132 to 136 °C; that for `O=C(Nc1ccc2c(c1)OCO2)c1ccc([N+](=O)[O-])cc1`, 231 to 234 °C; that for `Cc1ccc(S(=O)(=O)Oc2ccc(S(=O)(=O)c3c(-c4ccccc4)cn4ccccc34)cc2)cc1`, 168 °C. Compound `CCCCc1nnc2ccccc2c1Cc1ccc(-c2ccccc2)c(C(=O)O)c1` gave a melting point of 210 °C.

In turn, `COC(=O)CN(c1ccc(Cl)cc1C(=O)c1ccccc1F)S(=O)(=O)c1ccc(N)cc1` showed a melting point of 168 to 170 °C. To `Cc1nc(CO)n(C)c1[N+](=O)[O-]` belongs 113 to 114 °C; to `CC(=O)N(O)C(C)c1ccccc1Nc1c(Cl)ccc(C)c1Cl` (stereo not drawn), 185 to 187 °C. Regarding `O=C1CCC(CCC(=O)OCc2ccccc2)N1` (stereo not drawn), the melting point was 79 to 80 °C. For the compound `CN1Cc2c(Cl)ccc3scc(c23)S1(=O)=O`, the melting point is 196 °C. In turn, `CCOC(=O)c1ccc(NCCc2cccs2)cc1` returned a melting point of 93 to 96 °C. As to `Clc1cccc(CCC2(Cn3ccnc3)SCCS2)c1`, the melting point lay within 224 to 227 °C. Turning to `COc1cccc(CC(=NO)c2ccccc2)c1`, the melting point was 72 to 73 °C. In turn, `COc1cc(CCI)cc2c1OCO2` yielded a melting point of 78 to 80 °C.

For `Cc1cn(-c2cc(C)c3[nH]c(=O)ccc3c2)c(C)n1`, the melting point lay in the range of 322 to 325 °C. The compound `CCOC(=O)c1cc(=O)c2cc(C(C)(C)C)cc(C(C)(C)C)c2o1` yielded a melting point of 130 to 132 °C. `c1ccc(OCCSCc2ncc(-c3ccc(OCCN4CCCCCC4)cc3)o2)cc1` came in with a melting point of 35 to 38 °C. The compound `Cc1ccc(-n2c(-c3ccc(S(C)(=O)=O)cc3)nc(O)c(C#N)c2=O)cc1C` had a melting point of more than 285 °C. With `CC(=O)N[C@@H](CSC(c1ccccc1)(c1ccccc1)c1ccccc1)C(=O)NCCSC(=O)C(C)(C)C`, the melting point was in the range of 212 to 213 °C.

Take `CC(C)c1cc(CCCOc2ncccc2CC(=O)O)n(Cc2ccc(Cl)cc2Cl)n1`: the melting point lay within 111 to 112 °C.

For `COCOc1ccc(C=O)cc1OC`, the melting point lay in the range of 39 to 40 °C. The result for `NC(=O)NN=Cc1ccc(Oc2ccc(F)cc2)c(F)c1` reads 233 to 234 °C; that for `CSCc1ccc(-c2cccnc2)o1`, 67 to 68 °C.

In turn, `CCCCC1OC(=O)c2cc(NC3CCCC3)ccc21` (stereo not drawn) showed a melting point of 79 to 81 °C. The result for `COc1cc2c(c3c1OC(C)(C)C3)C(c1cccc(-c3ccco3)c1)=NC(C)(C)C2` reads 126 to 128 °C; that for `CC(O)CCNc1cc(C(=O)O)cc(S(N)(=O)=O)c1Oc1ccccc1` (stereo not drawn), 245 to 247 °C. Consider `COc1nc2cc(Cl)c(Cl)c(-n3cnnc3-c3cccnc3)c2nc1OC`, for which the melting point fell in the range of 206 to 207 °C.

`CCn1ncc2c(O)c(CCc3ccccc3)c(C(=O)O)nc21` gave a melting point of 250 to 251 °C. To `CC(C)(C)OC(=O)N1CCN(c2ccc(N3CCN(Cc4ccccc4)CC3)cc2)CC1` belongs 132 to 133 °C. The result for `CC=Cc1cccc2c(=O)c(C)c(C(=O)O)oc12` reads 224 to 228 °C. In turn, `O=C(O)COc1ccc(Nc2nccc(-c3ccncc3)n2)cc1` yielded a melting point of 308 to 310 °C.

With `ClCc1coc(-c2ccc3oc(-c4ccccc4)nc3c2)n1`, the melting point is 194 to 195 °C. As to `CC(=C(F)c1ccccc1)c1ccc2c(c1)C(C)(C)CCC2(C)C`, the melting point worked out at 100 °C.

`N#Cc1ccc(-n2c(N)nc3ccccc32)cc1Cl` showed a melting point of 245 to 248 °C. Consider `Cc1c(O)cc(N)cc1C(=O)O`, for which the melting point was more than 250 °C. For `CC(Oc1ncn(-c2cccc(Cl)c2)n1)C(=O)O` (stereo not drawn), the melting point lay within 197 to 199 °C. For the compound `Cc1cnc2c(c1)C(=O)c1cc(-c3ccccc3)c(=O)[nH]c1C2=O`, the melting point turned out to be 275 °C. With `CC1=C(c2ccccc2)n2nc(C)c(C(N)=O)c2NC1`, the melting point fell in the range of 208 to 210 °C. For the compound `O=C1N=NC(=O)N1c1ccccc1`, the melting point was in the range of 102 to 107 °C. Compound `COc1ccc(/C=C(\C#N)c2ccccn2)cc1OC1CCCC1` had a melting point of 82.5 to 83 °C. To `COc1cc2c(cc1CNC1CCCNC1c1ccccc1)N(C)C(=O)CC2(C)C` (stereo not drawn) belongs more than 280 °C. Regarding `O=Cc1cc(Br)ccc1Oc1ccc(Cl)c(Cl)c1`, the melting point was in the range of 129 to 132 °C. To `CC12CCC3c4ccc(OCc5ccccc5)c(N)c4CCC3C1CCC2=O` (stereo not drawn) belongs 219 to 221 °C; to `COc1ccc(C(=O)CCC2CCCCC2)c(OC)c1`, 34 to 35 °C. The result for `O=C1Nc2ccccc2C(c2ccccc2)CC1Br` (stereo not drawn) reads 191 to 192 °C; that for `CNC(=O)Nc1occ(C(C)(C)C)c1C#N`, 163 °C. The compound `O=C(O)c1ccc(OCCCOCCCCCCBr)cc1` displayed a melting point of 72 to 75 °C. The result for `O=c1cc(-c2ccccc2)oc2cc(OCCCCCN3CCC(O)CC3)ccc12` reads 94 to 95 °C. The compound `CCOC(=O)Nc1nc2c(c3c(CCNS(C)(=O)=O)n(C)nc13)CCCC2` returned a melting point of 214 to 215 °C. `CNS(=O)(=O)c1cc2c(c(C(=O)NCC3CCN(C)C3)c1)OCCO2` (stereo not drawn) came in with a melting point of 187 to 188 °C.

On to `Cc1nc(-n2cnn(Cc3ccc(C(F)(F)F)o3)c2=O)sc1C(=O)NCc1cccnc1`, for which the melting point is 124 to 125 °C. Turning to `CN(C)c1ncc(-c2cccc(Nc3ccc(-n4cccc4)cc3[N+](=O)[O-])c2)cn1`, the melting point was 166 to 168 °C. `Cc1sccc1C1=C(c2ccsc2C)C(F)(F)C(F)(F)C1(F)F` yielded a melting point of 73.6 °C.

`O=C(O)C(=O)NC1N=C2C(=Cc3ccccc32)S1` (stereo not drawn) gave a melting point of 229 to 231 °C. The result for `CCOC(=O)c1ccc2c(c1)c(C)c(C)n2C(C)=O` reads 98 to 101 °C.

On to `OC1(c2ccncc2)c2ccccc2CCc2ccccc21`, for which the melting point is 174 to 177 °C. For the compound `O=C(NC1CC1)c1ccc(F)c(F)c1`, the melting point was 104 to 108 °C.

Turning to `CCOP(=O)(OCC)C(C)c1cn(C(c2ccccc2)(c2ccccc2)c2ccccc2)cn1` (stereo not drawn), the melting point lay in the range of 124 to 126 °C. Compound `O=C(CCCCCl)c1cc2c3c(c1)CCN3C(=O)CC2` displayed a melting point of 110 to 111 °C. `CCOC(=O)c1ccc(NS(C)(=O)=O)c(N)c1` had a melting point of 151 °C.

For `CN(C)c1ccc(/C=C/c2c(F)cccc2F)c([N+](=O)[O-])c1`, the melting point was in the range of 152 to 153 °C. As to `CCOC(=O)C=CC(=O)N1CC1C#N` (stereo not drawn), the melting point lay in the range of 54 to 56 °C. `COc1cc(-c2nc(-c3ccc(N(C)C)cc3)c(C)o2)ccc1OC(C)=O` gave a melting point of 97 to 102 °C.

Compound `CN1C(=O)[C@H](NC(=O)/C=C/c2ccc(I)cc2)N=C(c2ccccc2)c2ccccc21` showed a melting point of 137 to 140 °C. To `COc1cc(OC)cc(C2CCCCC2=O)c1` (stereo not drawn) belongs 61 to 62 °C; to `O=S1(=O)NCc2ccccc2O1`, 89 to 90 °C. Turning to `C#CCNC1=Nc2ccc(Cl)cc2C(c2ccccc2)=NC1`, the melting point was 202 °C. `O=C(NCCCn1ccnc1)c1cccc(Cl)c1` gave a melting point of 125 to 127 °C. As to `C=CCN1CCc2cc(OC)c(OC)c3c2C1Cc1cc(OC)c(OC)cc1-3` (single isomer, unassigned; (+)), the melting point was 139 to 143 °C. In the case of `O=Cc1c2cccc(Cl)c2c(Cl)c2c(Cl)cccc12`, the melting point lay in the range of 118 to 120 °C. Take `CCOC(=O)c1cc(=O)c(Oc2ccc(O)cc2)co1`: the melting point is 206 to 208 °C. Turning to `OC1c2ccccc2CCC12CCCCN2` (stereo not drawn), the melting point was 125 to 127 °C. The result for `N#Cc1cc([N+](=O)[O-])ccc1Oc1ccc(Cl)c(Cl)c1` reads 154 to 155 °C; that for `O=C(Nc1ccc(Cl)c(C(F)(F)F)c1)Nc1ccc(Cl)cc1-c1nnn[nH]1`, 245 to 247 °C; that for `CC(=O)OCC(=O)C1=CCC2C3CCC4=CC(=O)CCC4(C)C3=CCC12C` (stereo not drawn), 128 to 129 °C. Regarding `CCC1(CCCCN2CCN(c3cccc(OC)c3)CC2)C(=O)Nc2ccccc21` (stereo not drawn), the melting point was in the range of 123 to 125 °C.

`COC(=O)c1cnc2n1CCc1ccccc1C2=C1CCN(CCc2ccc(OCc3ccc4ccccc4n3)cc2)CC1` returned a melting point of 179 °C. The result for `Nc1nc(Cl)c(CCCl)c(Cl)n1` reads 210 to 213 °C; that for `CC(=O)N1CCC(c2n[nH]c3cc(Cl)ccc23)CC1`, 172 to 174 °C. Consider `COc1cccc([C@H]2O[C@H](CC(=O)Nc3ccc4oc(CCC(=O)O)cc4c3)C(=O)N(CC(C)(C)CO)c3ccc(Cl)cc32)c1OC`, for which the melting point lay in the range of 207 to 209 °C. The compound `CC(=O)N1CCc2c(Br)ccc([N+](=O)[O-])c2C1` showed a melting point of 159 to 161 °C. To `CC(C)(C)OC(=O)NCCNC(=O)c1ncccc1Oc1ccc(Cl)cc1` belongs 120 to 122 °C; to `N#Cc1ccc2c(c1)CC(Br)C2=O` (stereo not drawn), 115 to 118 °C; to `COc1cccc(CC(NC(C)=O)C(=O)O)c1OCc1ccccc1` (racemic), 169 to 170 °C.
